From patent US10150760B2, “Compounds for use in preparing heterocyclic triazole agonists of the APJ receptor” (AMGEN INC., priority 2016, dated 2018) come the findings set out here.

Chain of human APJ receptor (P35414 whole entry): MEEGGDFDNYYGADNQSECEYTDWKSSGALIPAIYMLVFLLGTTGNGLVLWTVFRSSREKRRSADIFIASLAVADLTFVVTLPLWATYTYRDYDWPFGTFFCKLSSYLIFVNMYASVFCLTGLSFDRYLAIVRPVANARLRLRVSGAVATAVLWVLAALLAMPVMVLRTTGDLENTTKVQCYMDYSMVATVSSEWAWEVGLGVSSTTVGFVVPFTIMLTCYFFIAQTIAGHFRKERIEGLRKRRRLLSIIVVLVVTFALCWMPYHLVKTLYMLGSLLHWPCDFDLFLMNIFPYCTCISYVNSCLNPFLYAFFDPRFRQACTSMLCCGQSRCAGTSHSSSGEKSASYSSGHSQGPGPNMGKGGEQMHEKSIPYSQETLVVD

The test has as its target human APJ receptor (Homo sapiens (Human), UniProt P35414). Briefly: [35S]GTPγS binding assay on membranes from CHO cells stably expressing human APJ receptor. The format is biochemical. The conditions noted are these: read-out: Activity hAPJ SPA EC50 IP. In a few lines:
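Membranes from CHO cells stably expressing human APJ incubated with ligand, 0.2 nM [35S]GTPγS and WGA SPA beads in HEPES pH 7.5 with 5 mM MgCl2, 200 mM NaCl, 3 μM GDP, 90 min at RT. Nonspecific binding defined with 100 μM GTPγS; EC50 by non-linear regression.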
A general note: GTPγS resists hydrolysis and so accumulates on activated G proteins.
Regarding “(1R,2S)-1-(5-chloropyrimidin-2-yl)-N-(4-(4,6-dimethoxypyrimidin-5-yl)-5-((R)-5,5-dimethyltetrahydrofuran-3-yl)-4H-1,2,4-triazol-3-yl)-1-methoxypropane-2-sulfonamide or (1R,2S)-1-(5-chloropyrimidin-2-yl)-N-(4-(4,6-dimethoxypyrimidin-5-yl)-5-((S)-5,5-dimethyltetrahydrofuran-3-yl)-4H-1,2,4-triazol-3-yl)-1-methoxypropane-2-sulfonamide [Example 316.0]”, the EC50 came out at 26 nM.
As for “(1R,2S)-1-(5-chloropyrimidin-2-yl)-N-(5-((R)-2,3-dihydrobenzo[b][1,4]dioxin-2-yl)-4-(2,6-dimethoxyphenyl)-4H-1,2,4-triazol-3-yl)-1-methoxypropane-2-sulfonamide or (1R,2S)-1-(5-chloropyrimidin-2-yl)-N-(5-((S)-2,3-dihydrobenzo[b][1,4]dioxin-2-yl)-4-(2,6-dimethoxyphenyl)-4H-1,2,4-triazol-3-yl)-1-methoxypropane-2-sulfonamide [Example 258.0]”, the figure is 33 nM; as for “(1R,2S)-1-(5-chloropyrimidin-2-yl)-N-(5-((R)-2,3-dihydrobenzo[b][1,4]dioxin-2-yl)-4-(2,6-dimethoxyphenyl)-4H-1,2,4-triazol-3-yl)-1-methoxypropane-2-sulfonamide or (1R,2S)-1-(5-chloropyrimidin-2-yl)-N-(5-((S)-2,3-dihydrobenzo[b][1,4]dioxin-2-yl)-4-(2,6-dimethoxyphenyl)-4H-1,2,4-triazol-3-yl)-1-methoxypropane-2-sulfonamide [Example 259.0]”, 88 nM; as for “(1R,2S)-1-(5-chloropyrimidin-2-yl)-N-(5-((S)-5,5-dimethyltetrahydrofuran-2-yl)-4-(tetrahydro-2H-pyran-4-yl)-4H-1,2,4-triazol-3-yl)-1-methoxypropane-2-sulfonamide or (1R,2S)-1-(5-chloropyrimidin-2-yl)-N-(5-((R)-5,5-dimethyltetrahydrofuran-2-yl)-4-(tetrahydro-2H-pyran-2-yl)-4H-1,2,4-triazol-3-yl)-1-methoxypropane-2-sulfonamide [Example 221.0]”, 560 nM.
As for “(1R,2S)-N-(4-(1,3-dimethoxy-2-propanyl)-5-((2R,5R)-5-methyltetrahydro-2-furanyl)-4H-1,2,4-triazol-3-yl)-1-methoxy-1-(5-methoxy-2-pyrazinyl)-2-propanesulfonamide or (1R,2S)-N-(4-(1,3-dimethoxy-2-propanyl)-5-((2S,5S)-5-methyltetrahydro-2-furanyl)-4H-1,2,4-triazol-3-yl)-1-methoxy-1-(5-methoxy-2-pyrazinyl)-2-propanesulfonamide [Example 378.0]”, the figure is 170 nM; as for “(1R,2S)-N-(4-(1,3-dimethoxy-2-propanyl)-5-((2R,5R)-5-methyltetrahydro-2-furanyl)-4H-1,2,4-triazol-3-yl)-1-methoxy-1-(5-methoxy-2-pyrazinyl)-2-propanesulfonamide or (1R,2S)-N-(4-(1,3-dimethoxy-2-propanyl)-5-((2S,5S)-5-methyltetrahydro-2-furanyl)-4H-1,2,4-triazol-3-yl)-1-methoxy-1-(5-methoxy-2-pyrazinyl)-2-propanesulfonamide [Example 379.0]”, 21 nM.
For the substance “(1R,2S)-N-(4-(2,6-dimethoxyphenyl)-5-((R)-1,4-dioxan-2-yl)-4H-1,2,4-triazol-3-yl)-1-ethoxy-1-(5-methylpyrimidin-2-yl)propane-2-sulfonamide or (1R,2S)-N-(4-(2,6-dimethoxyphenyl)-5-((S)-1,4-dioxan-2-yl)-4H-1,2,4-triazol-3-yl)-1-ethoxy-1-(5-methylpyrimidin-2-yl)propane-2-sulfonamide [Example 203.0]”, the EC50 amounted to 33 nM.
Regarding “(1R,2S)-N-(4-(2,6-dimethoxyphenyl)-5-((R)-1,4-dioxan-2-yl)-4H-1,2,4-triazol-3-yl)-1-ethoxy-1-(5-methylpyrimidin-2-yl)propane-2-sulfonamide or (1R,2S)-N-(4-(2,6-dimethoxyphenyl)-5-((S)-1,4-dioxan-2-yl)-4H-1,2,4-triazol-3-yl)-1-ethoxy-1-(5-methypyrimidin-2-yl)propane-2-sulfonamide [Example 204.0]”, the EC50 turned out to be 100 nM.
As for “(1R,2S)-N-(4-(2,6-dimethoxyphenyl)-5-((R)-1,4-dioxan-2-yl)-4H-1,2,4-triazol-3-yl)-1-methoxy-1-(5-methylpyrimidin-2-yl)propane-2-sulfonamide or (1R,2S)-N-(4-(2,6-dimethoxyphenyl)-5-((S)-1,4-dioxan-2-yl)-4H-1,2,4-triazol-3-yl)-1-methoxy-1-(5-methylpyrimidin-2-yl)propane-2-sulfonamide [Example 202.0]”, the EC50 was determined as 120 nM.
“(1R,2S)-N-(4-(2,6-dimethoxyphenyl)-5-((S)-3-oxoisoindolin-1-yl)-4H-1,2,4-triazol-3-yl)-1-methoxy-1-(5-methylpyrimidin-2-yl)propane-2-sulfonamide or (1R,2S)-N-(4-(2,6-dimethoxyphenyl)-5-((R)-3-oxoisoindolin-1-yl)-4H-1,2,4-triazol-3-yl)-1-methoxy-1-(5-methylpyrimidin-2-yl)propane-2-sulfonamide [Example 236.0]”: the concentration for a half-maximal effect (EC50) was greater than 4200 nM.
Consider “(1R,2S)-N-(4-(2,6-dimethoxyphenyl)-5-((S)-3-oxoisoindolin-1-yl)-4H-1,2,4-triazol-3-yl)-1-methoxy-1-(5-methylpyrimidin-2-yl)propane-2-sulfonamide or (1R,2S)-N-(4-(2,6-dimethoxyphenyl)-5-((R)-3-oxoisoindolin-1-yl)-4H-1,2,4-triazol-3-yl)-1-methoxy-1-(5-methylpyrimidin-2-yl)propane-2-sulfonamide [Example 237.0]”, for which the EC50 is 590 nM.
As to “(1R,2S)-N-(4-(2,6-dimethoxyphenyl)-5-((S)-tetrahydro-2H-pyran-3-yl)-4H-1,2,4-triazol-3-yl)-1-hydroxy-1-(5-methylpyrimidin-2-yl)propane-2-sulfonamide or (1R,2S)-N-(4-(2,6-dimethoxyphenyl)-5-((R)-tetrahydro-2H-pyran-3-yl)-4H-1,2,4-triazol-3-yl)-1-hydroxy-1-(5-methylpyrimidin-2-yl)propane-2-sulfonamde [Example 194.0]”, the EC50 came out at 20 nM.
To “(1R,2S)-N-(4-(2,6-dimethoxyphenyl)-5-((S)-tetrahydro-2H-pyran-3-yl)-4H-1,2,4-triazol-3-yl)-1-hydroxy-1-(5-methylpyrimidin-2-yl)propane-2-sulfonamide or (1R,2S)-N-(4-(2,6-dimethoxyphenyl)-5-((R)-tetrahydro-2H-pyran-3-yl)-4H-1,2,4-triazol-3-yl)-1-hydroxy-1-(5-methylpyrimidin-2-yl)propane-2-sulfonamide [Example 193.0]” belongs 180 nM; to “(1R,2S)-N-(4-(4,6-dimethoxypyrimidin-5-yl)-5-((S)-tetrahydrofuran-2-yl)-4H-1,2,4-triazol-3-yl)-1-methoxy-1-(5-methylpyrazin-2-yl)propane-2-sulfonamide or (1R,2S)-N-(4-(4,6-dimethoxypyrimidin-5-yl)-5-((R)-tetrahydrofuran-2-yl)-4H-1,2,4-triazol-3-yl)-1-methoxy-1-(5-methylpyrazin-2-yl)propane-2-sulfonamide [Example 185.0]”, 510 nM.

One may read the EC50 as the midpoint of the concentration-response curve.
